Experimental data published in article PMC3344887 (PLoS ONE, 2012).

What was measured:
healthy subjects [1] = assay: Visual Analog Scales, subjective drug effects, clinical study; type: in vivo, humans
Protocol: (§1) The washout periods between the sessions were at least 10 days long.
(§2) Identical placebo (lactose) capsules were prepared. […] Drugs were administered without food.
(§3) The psychometric measures included Visual Analog Scales (VAS), [10], the Adjective Mood Rating Scale (AMRS), and 5-Dimensions of Altered States of Consciousness (5D-ASC), [23]. […] The VASs were presented as 100 mm horizontal lines marked “not at all" on the left and “extremely" on the right. The VASs for “closeness to others," “open," and “talkative" were bidirectional (±50 mm). The VASs were administered 4 h before and 0, 0.33, 1, 1.5, 2, 2.5, 3, 3.5, 4, and 5 h after MDMA or placebo administration. […] The AMRS contains subscales for activity, extroversion and introversion, well-being, emotional excitation, anxiety-depression, and dreaminess. The 5D-ASC rating scale measures alterations in mood, perception, experience of self in relation to the environment, and thought disorder. The 5D-ASC rating scale comprises five subscales or dimensions and 11 lower-order scales. The 5D-ASC dimension “oceanic boundlessness" (OB, 27 items) measures derealization and depersonalization associated with positive emotional states, ranging from heightened mood to euphoric exaltation. […] The global ASC score was determined by adding the OB, AED, and VR scores. The 5D-ASC scale was administered 4 h after MDMA or placebo administration.
(§4) Clinical data values were transformed to differences from baseline. Peak effects (Emax) were determined for repeated measures. Emax values were compared using General Linear Models repeated-measures analysis of variance, with drug as within-subject factor, using Statistica 6.0 software (StatSoft, Tulsa, OK). Tukey post hoc comparisons were performed based on significant main effects of treatment. Additional analyses of variance were performed, with period as factor to exclude period effects. Correlation analyses were performed using Pearson’s correlations. The criterion for significance was p<0.05. Mean arterial pressure (MAP) was calculated from diastolic blood pressure and systolic blood pressure using the following formula: MAP = DBP+(SBP - DBP)/3.

healthy subjects [2] = assay: Physiologic measures (blood pressure, heart rate, body temperature), clinical study; type: in vivo, humans; conditions: peak change from baseline, mean±SEM, 16 subjects
Protocol: as §1, §2
(§5) Physiologic measures were assessed repeatedly 4, 3, 2, and 1 h before and 0, 0.33, 0.66, 1, 1.5, 2, 2.5, 3, 4, 5, and 6 h after MDMA or placebo administration. Heart rate, systolic blood pressure, and diastolic blood pressure were measured using an OMRON M7 blood pressure monitor (OMRON Healthcare Europe, Hoofddorp, The Netherlands). Measures were taken twice per time point with an interval of 1 min, and the average was used for the analysis. Core (tympanic) temperature was assessed using a GENIUS 2 ear thermometer (Tyco Healthcare Group, Watertown, NY). […] Adverse effects were assessed using the List of Complaints (LC), which consists of 66 items that yield a total adverse effects score and reliably measure physical and general discomfort.
as §4

healthy subjects [3] = assay: 5-Dimensions of Altered States of Consciousness (5D-ASC), clinical study; type: in vivo, humans; conditions: placebo-placebo vs placebo-MDMA
Protocol: as §1, §2, §3

DAT [4] = biological target: T1, DAT (Homo sapiens, UniProt Q01959); assay: Radioligand binding, [3H]-WIN35,428, HEK 293 membranes; parameters: expressed in transfected cells; host or cells: HEK 293 cells (Invitrogen), stably transfected
T1 sequence (Q01959 whole entry): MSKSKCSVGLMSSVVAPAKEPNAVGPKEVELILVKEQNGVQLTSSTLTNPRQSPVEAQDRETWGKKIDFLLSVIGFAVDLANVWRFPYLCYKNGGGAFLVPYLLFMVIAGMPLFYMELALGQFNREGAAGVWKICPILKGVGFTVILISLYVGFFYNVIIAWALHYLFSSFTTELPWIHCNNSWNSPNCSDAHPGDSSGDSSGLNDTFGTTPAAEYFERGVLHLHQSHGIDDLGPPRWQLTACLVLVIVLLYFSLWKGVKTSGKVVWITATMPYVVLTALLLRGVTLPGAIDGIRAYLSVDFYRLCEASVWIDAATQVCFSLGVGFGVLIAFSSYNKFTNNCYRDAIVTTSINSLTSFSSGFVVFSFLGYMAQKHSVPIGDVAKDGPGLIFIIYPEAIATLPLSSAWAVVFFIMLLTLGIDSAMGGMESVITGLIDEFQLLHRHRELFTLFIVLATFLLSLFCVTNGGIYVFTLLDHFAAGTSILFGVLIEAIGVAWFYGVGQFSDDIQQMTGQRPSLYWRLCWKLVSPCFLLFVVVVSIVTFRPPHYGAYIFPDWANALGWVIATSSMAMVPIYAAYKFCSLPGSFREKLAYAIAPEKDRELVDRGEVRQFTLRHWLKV

NET [5] = biological target: T2, NET (Homo sapiens, UniProt P23975); assay: Radioligand binding, [3H]-nisoxetine, HEK 293 membranes; parameters: expressed in transfected cells; host or cells: HEK 293 cells (Invitrogen), stably transfected
T2 sequence (P23975 whole entry): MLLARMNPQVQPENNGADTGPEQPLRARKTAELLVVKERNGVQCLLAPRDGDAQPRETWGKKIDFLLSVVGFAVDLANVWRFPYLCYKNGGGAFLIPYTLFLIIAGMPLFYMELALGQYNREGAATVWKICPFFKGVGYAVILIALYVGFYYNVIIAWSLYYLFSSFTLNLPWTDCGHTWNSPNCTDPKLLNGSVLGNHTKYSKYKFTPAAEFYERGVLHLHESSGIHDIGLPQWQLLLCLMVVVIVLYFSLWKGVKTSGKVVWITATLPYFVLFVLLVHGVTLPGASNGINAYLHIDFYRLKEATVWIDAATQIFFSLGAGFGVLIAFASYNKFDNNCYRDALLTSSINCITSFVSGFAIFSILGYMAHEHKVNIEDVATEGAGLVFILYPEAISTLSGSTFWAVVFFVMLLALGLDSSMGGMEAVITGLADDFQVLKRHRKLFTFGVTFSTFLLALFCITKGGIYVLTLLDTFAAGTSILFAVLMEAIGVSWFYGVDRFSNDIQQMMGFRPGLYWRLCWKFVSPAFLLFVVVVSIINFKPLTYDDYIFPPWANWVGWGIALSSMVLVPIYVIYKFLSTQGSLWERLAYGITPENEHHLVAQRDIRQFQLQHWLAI

healthy subjects [6] = assay: Adverse effects, List of Complaints, clinical study
Protocol: as §1, §2, §5

DAT [7] = biological target: T1, DAT; assay: cell-based
healthy subjects [8] = assay: Circulating plasma catecholamines, clinical study; type: in vivo, humans; conditions: peak change from baseline, mean±SEM, 16 subjects
Protocol: as §1, §2
(§6) Plasma concentrations of copeptin were also determined in this study as reported elsewhere. […] No hydrolysis was performed. Thus, the values for HMMA represent the drug concentrations of the non-conjugated metabolite. All blood samples were collected on ice and centrifuged within 10 min at 4°C. The plasma was then stored at –20°C until the analysis.

SERT = SERT (Homo sapiens, UniProt P31645); conditions: % of plasma sample dilution, undiluted plasma = 100%; plasma 120 min after MDMA/placebo; mean±SEM
Chain of SERT (P31645 whole entry): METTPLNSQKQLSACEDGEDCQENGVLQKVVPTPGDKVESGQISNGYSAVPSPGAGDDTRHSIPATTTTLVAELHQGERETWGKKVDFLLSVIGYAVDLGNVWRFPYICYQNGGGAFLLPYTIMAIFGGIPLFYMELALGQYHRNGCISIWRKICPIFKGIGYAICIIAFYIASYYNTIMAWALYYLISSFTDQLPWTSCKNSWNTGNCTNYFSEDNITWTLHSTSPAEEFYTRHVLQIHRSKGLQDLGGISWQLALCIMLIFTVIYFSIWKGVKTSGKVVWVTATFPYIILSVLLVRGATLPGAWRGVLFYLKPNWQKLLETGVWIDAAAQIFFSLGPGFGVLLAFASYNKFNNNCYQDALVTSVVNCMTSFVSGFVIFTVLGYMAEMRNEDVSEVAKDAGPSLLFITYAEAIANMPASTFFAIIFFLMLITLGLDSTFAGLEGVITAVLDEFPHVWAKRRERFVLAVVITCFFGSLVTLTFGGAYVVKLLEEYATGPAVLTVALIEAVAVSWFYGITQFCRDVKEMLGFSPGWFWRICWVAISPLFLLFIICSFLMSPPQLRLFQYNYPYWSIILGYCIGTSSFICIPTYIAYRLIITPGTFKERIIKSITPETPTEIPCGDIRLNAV

NET [9] = biological target: T2, NET; conditions: % of plasma sample dilution, undiluted plasma = 100%; plasma 120 min after MDMA/placebo; mean±SEM
clinical = conditions: human, in vivo
Protocol: as §2, §6
Cmax and tmax were obtained directly from the observed concentration-time curves. […] Terminal elimination half-life (t 1/2) was calculated using λz and the equation t1/2 = ln2/λz. The area under the plasma concentration-time curve up to 6 h (AUC0-6h) was calculated using the linear trapezoidal rule. The AUC0–∞ was determined by extrapolation of AUC0–6h using λz. The PK parameters were determined using the PK functions for Excel (Microsoft, Redmont, CA, USA). Plasma concentrations were only determined up to 6 h after MDMA administration because the aim of the study was to assess potential changes in MDMA plasma levels while relevant pharmacodynamic effects or MDMA were present.

[10] = peak change from baseline, mean±SEM, 16 subjects

Compound: CNC(C)Cc1ccc2c(c1)OCO2 (stereo not shown) [MDMA, 3,4-methylenedioxymethamphetamine]
- Observed time to half-maximal subjective drug effect (healthy subjects [1]; after drug administration): 44 ± 4 min
- VAS Any drug effect, Emax (healthy subjects [1]; [10]): 86.69±3.57
- VAS Closeness, Emax (healthy subjects [1]; [10]): 27.31±3.87
- VAS Drug high, Emax (healthy subjects [1]; [10]): 87.81±4.85
- VAS Drug liking, Emax (healthy subjects [1]; [10]): 90.69±4.82
- VAS Good drug effect, Emax (healthy subjects [1]; [10]): 89.38±4.67
- VAS Open, Emax (healthy subjects [1]; [10]): 32.16±4.29
- VAS Stimulated, Emax (healthy subjects [1]; [10]): 76.31±6.84
- VAS Talkative, Emax (healthy subjects [1]; [10]): 28.81±5.12
- DPB, Emax (healthy subjects [2]; diastolic blood pressure): 22.13±2.08 mm Hg
- MAP, Emax (healthy subjects [2]; mean arterial pressure): 21.76±2.73 mm Hg
- Heart rate, Emax (healthy subjects [2]): 26.06±2.77 beats/min
- SBP, Emax (healthy subjects [2]; systolic blood pressure): 29.94±3.41 mm Hg
- Body temperature, Emax (healthy subjects [2]; tympanic): 0.54±0.07 °C
- Effect on ASC sum score, OB, AED and VR dimensions (healthy subjects [3]): significantly increased
- Ki (DAT [4]): 6.52 ± 2.24 µM
- Ki (NET [5]): 22.4 ± 14.6 µM
- List of Complaints (total score), Acute adverse effects (healthy subjects [6]; at 3 h, change from baseline, mean±SEM, 16 subjects): 5.56±1.72
- List of Complaints (total score), Sub-acute adverse effects (healthy subjects [6]; at 24 h, change from baseline, mean±SEM, 16 subjects): 3.88±1.09
- Adverse effects produced (healthy subjects [6]; clinical study): sweating, difficulty concentrating, thirst, and lack of appetite
- Ki (DAT [7]): 16.7 µM
- Circulating Epinephrine, Emax (healthy subjects [8]): 0.50 ± 0.12 nM
- Circulating Norepinephrine, Emax (healthy subjects [8]): 0.44 ± 0.12 nM
- Ex vivo binding (IC50%) SERT (SERT): >25%
- Ex vivo binding (IC50%) NET (NET [9]): 23.4±0.7%
- Cmax (clinical): 254 ± 13.6 ng/mL
- Cmax (clinical; 125 mg): 221 ± 11.6 ng/mL
- AUC(0-t) (clinical; AUC0-6): 1110 ± 57.2 ng·h/mL
- AUC(0-t) (clinical; AUC0-6, Placebo-MDMA session, mean±SEM, n=16): 953 ± 45.9 ng·h/mL
- AUC(0-inf) (clinical; AUC(0-∞)): 2910 ± 276 ng·h/mL
- half-life (clinical; T1/2): 428 ± 24 min
- half-life (clinical; T1/2, Placebo-MDMA session, mean±SEM, n=16): 490 ± 44.4 min
- Tmax (clinical): 2.66 ± 0.29 h
- Tmax (clinical; Placebo-MDMA session, mean±SEM, n=16): 2.34 ± 0.19 h
